According to ChEMBL document CHEMBL3727350, “Agents and methods for treating ischemic and other diseases” (2014):
Active and inactive are the calls of the source. No cut-off for these calls is given here.

Biological target: Transient receptor potential cation channel subfamily M member 7 (Mus musculus) (UniProt Q923J1)
Experiment: Inhibition of Tet-induced Flag-tagged mouse TRPM7 expressed in HEK293 cells assessed as inhibition of channel-mediated cell death in presence of Mg2+ incubated for 24 to 48 hrs by propidium iodide uptake assay
Assay type: cell-based
Design: concentration or dose not given beside the values

Transient receptor potential cation channel subfamily M member 7 (Mus musculus), sequence (Q923J1 whole entry): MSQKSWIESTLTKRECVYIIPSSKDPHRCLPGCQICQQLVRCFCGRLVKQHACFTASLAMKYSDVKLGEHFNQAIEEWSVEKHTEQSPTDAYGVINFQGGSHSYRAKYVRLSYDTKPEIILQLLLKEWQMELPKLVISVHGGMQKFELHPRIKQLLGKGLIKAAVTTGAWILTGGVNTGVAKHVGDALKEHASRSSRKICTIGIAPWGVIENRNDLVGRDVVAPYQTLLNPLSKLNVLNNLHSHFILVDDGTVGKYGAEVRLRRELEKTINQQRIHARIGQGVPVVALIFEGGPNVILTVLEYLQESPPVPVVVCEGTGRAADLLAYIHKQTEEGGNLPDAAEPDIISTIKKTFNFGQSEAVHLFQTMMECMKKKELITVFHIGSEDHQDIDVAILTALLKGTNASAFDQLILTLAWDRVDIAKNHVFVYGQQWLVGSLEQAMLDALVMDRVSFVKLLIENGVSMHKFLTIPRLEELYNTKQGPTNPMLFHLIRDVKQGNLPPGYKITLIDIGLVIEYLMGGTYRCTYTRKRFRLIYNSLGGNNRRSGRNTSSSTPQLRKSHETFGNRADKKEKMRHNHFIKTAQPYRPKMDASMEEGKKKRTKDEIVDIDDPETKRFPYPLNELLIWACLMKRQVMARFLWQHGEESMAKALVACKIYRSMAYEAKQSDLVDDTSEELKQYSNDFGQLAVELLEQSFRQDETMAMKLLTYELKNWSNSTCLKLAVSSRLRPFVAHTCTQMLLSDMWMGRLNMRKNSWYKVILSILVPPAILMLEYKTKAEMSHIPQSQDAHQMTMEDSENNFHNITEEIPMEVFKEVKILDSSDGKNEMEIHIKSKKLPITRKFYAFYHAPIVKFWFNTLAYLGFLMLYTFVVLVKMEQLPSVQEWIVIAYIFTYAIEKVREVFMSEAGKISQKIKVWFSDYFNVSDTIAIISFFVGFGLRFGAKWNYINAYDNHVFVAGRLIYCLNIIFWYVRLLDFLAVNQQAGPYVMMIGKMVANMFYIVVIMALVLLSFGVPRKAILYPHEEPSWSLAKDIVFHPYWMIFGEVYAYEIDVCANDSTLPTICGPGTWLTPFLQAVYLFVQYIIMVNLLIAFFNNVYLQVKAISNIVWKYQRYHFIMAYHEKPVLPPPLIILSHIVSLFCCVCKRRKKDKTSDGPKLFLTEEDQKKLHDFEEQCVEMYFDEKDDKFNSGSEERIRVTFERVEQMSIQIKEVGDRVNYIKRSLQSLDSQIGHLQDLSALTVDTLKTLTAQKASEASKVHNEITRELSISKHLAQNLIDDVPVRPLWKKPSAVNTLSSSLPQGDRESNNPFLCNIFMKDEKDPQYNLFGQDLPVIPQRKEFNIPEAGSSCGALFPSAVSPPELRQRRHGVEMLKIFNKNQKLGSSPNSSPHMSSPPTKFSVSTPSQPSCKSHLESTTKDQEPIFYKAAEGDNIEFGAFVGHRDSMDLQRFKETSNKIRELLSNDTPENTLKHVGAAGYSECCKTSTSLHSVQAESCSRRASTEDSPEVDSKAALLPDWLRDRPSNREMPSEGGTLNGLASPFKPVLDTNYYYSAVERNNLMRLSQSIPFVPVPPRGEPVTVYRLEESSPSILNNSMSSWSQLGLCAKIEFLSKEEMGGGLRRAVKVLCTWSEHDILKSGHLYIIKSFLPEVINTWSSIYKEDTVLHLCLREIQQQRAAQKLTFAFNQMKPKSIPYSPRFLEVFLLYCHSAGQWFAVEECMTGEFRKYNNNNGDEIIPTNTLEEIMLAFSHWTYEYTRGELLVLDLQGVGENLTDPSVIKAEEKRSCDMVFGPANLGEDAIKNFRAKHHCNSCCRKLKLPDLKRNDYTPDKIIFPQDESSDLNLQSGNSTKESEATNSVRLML

SMILES | inhibition (concentration not given here) | inhibition
CCc1c(O)c2ccccc2n(C)c1=O | 50% | 
C/C(=N\NC1=NCCN1Cc1ccccc1)c1ccc(C)cc1 | 70% | 
C#Cc1cccc(NC(=O)c2c(-c3c(Cl)cccc3Cl)noc2C)c1 | < 30% | 
O=C(Nc1ccc(F)c(Cl)c1)c1ccccc1O | < 30% | 
Cc1cc(C2CCCCC2)n(O)c(=O)c1 |  | Active
Oc1cc(C(F)(F)F)nc2ccc(F)cc12 | 80% | 
NNC(=O)CSc1ccccc1[N+](=O)[O-] | 40% | 
Cc1ccc(S(=O)(=O)NCCN2CCN(C(=O)OC(C)(C)C)CC2)cc1 | < 30% | 
O=C1/C(=C\c2ccc(F)cc2)Sc2ccccc21 | < 30% | 
O=C1NC(=O)/C(=C/c2cccc(C#Cc3ccccc3)c2)S1 | 60% | 
O=[N+]([O-])C1=Cc2c(ccc3ccccc23)OC1c1c(Cl)cccc1Cl (stereo unspecified) | 60% | 
Cc1c(C)c(C)c(CN2CCOC(c3ccccc3)C2C)c(C)c1C (stereo unspecified) | < 30% | 
N#Cc1ccc(NS(=O)(=O)c2ccc3ccccc3c2)cc1 | 40% | 
Cc1noc(C)c1C(=O)OCc1ccc(-c2ccc(F)cc2F)o1 | 50% | 
c1ccc2c(c1)Nc1nc3ccccc3nc1N2 | < 30% | 
O=C(NNC(=S)Nc1cc(Cl)ccc1Cl)C(O)(c1ccccc1)c1ccccc1 | 50% | 
Fc1ccc(CN2CCN(Cc3c[nH]c4ccccc34)CC2)cc1 | 70% | 
O=c1c(Cc2ccc(Br)cc2)csc2ccccc12 | < 30% | 
CCCCCNC(=S)NNC(=O)OCC | 60% | 
O=C(c1sc2ccccc2c1Cl)N1CCc2ccccc2C1 | 70% | 
COc1ccc2nnc(-c3ccc(C(F)(F)F)cc3)n2n1 | < 30% | 
COc1ccc(C[C@H](N)C(=O)N[C@H]2[C@@H](O)[C@H](n3cnc4c(N(C)C)ncnc43)O[C@@H]2CO)cc1 |  | Dose-dependent effect
O=C(O)CNC(=O)c1cccs1 | < 30% | 
Cc1csc(-c2nc(-c3ccc(Cl)cc3)no2)c1Cl | < 30% | 
CCOC(C)CNC(=S)N/N=C/c1cccnc1 (stereo unspecified) | < 30% | 
Cc1ccc(S(=O)(=O)Nc2ccc(C)cc2NS(=O)(=O)c2ccc(Cl)cc2)cc1 | 40% | 
